Results on twelve molecules are retold here after patent US4873238A, “2-Pyridinecarbothioamides and pharmaceutical compositions comprising the same” (American Home Products Corporation, priority 1988, dated 1989).

One may read the ED50 as the dose at which the effect has come halfway, by size or by number of responders.

The test system of experiment [1] is gastric mucosal lesions produced by ethanol. The experiment can be described thus: Ethanol induced cytotoxicity in rats (prevention of gastric mucosal lesions). The class given is in vivo, Male Sprague-Dawley rats. The settings on record: for ED50: Rattus norvegicus, po; for % Inhibition of lesion formation: 10 mg/kg oral, 1 hour prior to ethanol, rat. Here is the method:
The purpose of this assay is to evaluate the effectiveness of the compounds of the present invention in preventing the formation of gastric mucosal lesions produced by ethanol. The assay is based on A. Robert et al., Gastroenterology 77, 433-443 (1979). Male Sprague-Dawley rats weighing between 120-150 grams were fasted for 24 hours prior to the experiment (water ad libitum). At least two hours before dosing, the animals were placed in individual cages with wire grid bottoms and denied access to water. Ethanol was administered orally at 1 mL per animal. The compounds of the present invention were dissolved in water or suspended in water with 0.5% carboxymethylcellulose and administered orally at a dose based on an appropriate standard giving ED50 to ED75 response of cytoprotective activity. The rats were randomly divided into groups of equal number, ordinarily 10 to a group. The rats were weighed and the individual weights were recorded. Exactly 1 hour prior to the administration of ethanol, the screening group was treated with the compounds of the present invention and the control group with the vehicle. One hour after administering the ethanol, the animals were euthanized. The stomachs were removed, cut along the greater curvature, and cleansed of all debris with tap water. The stomachs were set aside and kept moist with saline until the lesions were scored. Macroscopic lesions on the gastric mucosa were numerically graded. The final grade assigned a stomach was the sum of all the grades. Streaks longer than 6 mm are graded in multiples of 2 mm. The degree of cytotoxicity occuring in each group is represented as the mean ±SE ulcer grade. The mean of each treatment group was compared to the control group and expressed as the % inhibition of lesion formation.

The next experiment deals with stress-induced ulcers. The experiment can be described thus: Stress-induced gastric ulcers in rats. The class given is in vivo, Male rats. The note with it: oral or parenteral, usually 15 to 45 minutes prior to stress; restraint at 4-5 °C for 3 hours; sodium taurocholate 20 mg p.o.; rat; read-out: Stress-Induced Ulcer ED50. Here is the method: The purpose of this assay is to evaluate the effectiveness of the compounds of the present invention in preventing stress-induced ulcers. Male rats (280-380 g) were fasted for 18 hours (water available ad libitum) prior to use in experiments. Eight to twelve rats were used per group. Drug solutions or suspensions were prepared in physiological saline solution. Suspensions were prepared with the aid of 0.5% carboxymethylcellulose in physiological saline solution. Drugs were administered orally or parenterally at predetermined intervals (usually 15 to 45 minutes) prior to stress. This test procedure is according to the method of Senay et al., Proc. Soc. Exp. Biol. Med. 124, 1221 (1967), modified to produce a more consistent ulcer incidence. After drug administration, the rats were immobilized in metallic restrainers and placed in a cold room at 4°-5° C. for 3 hours before they were euthanized. Each rat was given 20 mg of sodium taurocholate p.o. immediately before placing it in the restrainer. After euthanizing the rats, the stomachs were excised and examined. Macroscopic ulcers were subjectively assigned a grade from 1 to 3 on the basis of increasing size. The number of ulcers in each size category was determined and multiplied by the respective grade; the addition of the resultant values gave the cumulative ulcer score. The average cumulative ulcer score of each […] group was compared to that of the control group and the percent inhibition of ulcer formation was calculated. When the responses obtained were directly proportional to the doses employed, ED50 values were determined from the dose-response curves obtained.

The next experiment relates to ethanol-induced ulcer. The settings on record: antisecretory agents; cited from earlier work.

Where a name gives a salt, the structure may show the parent alone.

`Fc1ccc(NC(=S)c2ccccn2)cc1Cn1ccnc1` [Example 1, N-[4-fluoro-3-[(1H-imidazol-1-yl)methyl]phenyl]-2-pyridinecarbothioamide]: the 50% effective dose (ED50) in experiment [1] was found to be 0.88 mg/kg. On the same count and under the same terms, as for `Fc1ccc(NC(=S)c2ccccn2)cc1CN1CCCCC1` [Example 2, N-[4-Fluoro-3-(piperidinylmethyl)phenyl]-2-pyridinecarbothioamide Hydrochloride], the figure is 2.6 mg/kg. Consider `N#Cc1ccc(NC(=S)c2ccccn2)cc1` [Example 3, N-(4-Cyanophenyl)-2-pyridinecarbothioamide], for which the values for the median effective dose (ED50) (in experiment [1]; in the experiment with stress-induced ulcers) were 1.1 mg/kg and 1.7 mg/kg, respectively.

In turn, `N#Cc1cccc(NC(=S)c2ccccn2)c1` [Example 4, N-(3-cyanophenyl)-2-pyridinecarbothioamide] returned an ED50 in experiment [1] of 1.6 mg/kg. In the case of `Cl.Cl.O.S=C(Nc1cccc(Cn2ccnc2)c1)c1ccccn1` [Example 5, N-[3-[(1H-Imidazol-1-yl)methyl]phenyl]-2-pyridinecarbothioamide Dihydrochloride Hydrate], the 50% effective dose (ED50) was 2.2 mg/kg in experiment [1] and 1.9 mg/kg in the experiment with stress-induced ulcers. For `S=C(Nc1cccc(CN2CCCCC2)c1)c1ccccn1` [Example 6, N-[3-(piperidinylmethyl)phenyl]-2-pyridinecarbothioamide], the ED50 was found to be 5.3 mg/kg in experiment [1] and 4.6 mg/kg in the experiment on stress-induced ulcers.

`S=C(Nc1ccc(CN2CCCCC2)cc1)c1ccccn1` [Example 7, N-[4-(piperidinylmethyl)phenyl]-2-pyridinecarbothioamide] came in with a 50% effective dose (ED50) in experiment [1] of 6.2 mg/kg. As for `S=C(Nc1cccc(CN2CCOCC2)c1)c1ccccn1` [Example 8, N-[3-[(4-Morpholinyl)methyl]phenyl]-2-pyridinecarbothioamide], the “% Inhibition of lesion formation” value in experiment [1] turned out to be 64%. Turning to `S=C(Nc1cccc(CN2CCSCC2)c1)c1ccccn1` [Example 9, N-[3-[(4-thiomorpholinyl)methyl]phenyl]-2-pyridinecarbothioamide], the “% Inhibition of lesion formation” value in experiment [1] is listed as 32%. On to `CN1CCN(Cc2cccc(NC(=S)c3ccccn3)c2)CC1` [Example 10, N-[3-[(4-methyl-1-piperazinyl)methyl]phenyl]-2-pyridinecarbothioamide dihydrochloride hemihydrate], for which the “% Inhibition of lesion formation” value in experiment [1] was found to be 10%.

Take `CN/C(=N/CCSCc1nc[nH]c1C)NC#N` [cimetidine]: the “Protection in the ethanol-induced ulcer model” value with ethanol-induced ulcer is given as “do not protect”.

On to `CC(C)[N+](C)(CCOC(=O)C1c2ccccc2Oc2ccccc21)C(C)C` [propantheline bromide], for which, in the experiment on ethanol-induced ulcer, the “Protection in the ethanol-induced ulcer model” value is listed as “do not protect”.
